According to US10231956B2, “3-(1H-pyrrolo[3,2-C]pyridin-2-YL)-1 H-pyrazolo[4,3-B]pyridines and therapeutic uses thereof” (Samumed, LLC, priority 2015, dated 2019):

Experiments:
SW480 colon cancer cells = test: Cell viability assay (CellTiter-Blue) in SW480 colon cancer cells; type: cell-based; conditions: Homo sapiens; for EC50: 96 h, four days, CellTiter-Blue; for inhibition at 10 µM: given for EC50 >10 μM, read-out: percent inhibition at 10 μM
Method in brief: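 4-day exposure, 37 °C/5% CO2; ~2×10^3 SW480 cells/well; 8-pt 1:3 curve, 10–0.0045 μM, duplicates vs DMSO controls. Resazurin→resorufin fluorescence readout, ~3 h. EC50 by nonlinear fit; if >10 μM, % inhibition at 10 μM reported.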

[1] = tested on: primary human fibroblasts derived from IPF patients (LL29 cells); test: Inhibition of fibrotic process: αSMA staining in TGF-β1 treated LL29 fibroblasts; type: cell-based; conditions: Fibroblast; for EC50: 96 h, TGF-β1 20 ng/mL, 4 days, % cells positive for αSMA; for inhibition at 10 µM: given for EC50 >10 μM, TGF-β1, αSMA, read-out: percent inhibition at 10 μM
Method in brief: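 LL29 cells at 1,500/well in F12 with 1% FBS, compounds at 1 μM–1.87 nM (11-point, 0.1% DMSO), TGF-β1 20 ng/mL added 1 h later, 4 days at 37 °C. SYTOX-positive cells excluded; % αSMA-positive cells by immunofluorescence imaging, normalized to TGF-β1/DMSO wells, triplicates fitted for EC50; above 10 μM, % inhibition at 10 μM given.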

SMILES: Cc1ccncc1-c1ccc2[nH]nc(-c3cc4c(N5CCN(C)CC5)nccc4[nH]3)c2n1 [Compound 229, 3-(4-(4-Methylpiperazin-1l-yl)-1H-pyrrolo[3,2-c]pyridin-2-yl)-5-(4-methylpyridin-3-yl)-1H-pyrazolo[4,3-b]pyridine]
- EC50 (SW480 colon cancer cells): 824 nM
- EC50 [1]: 949 nM

SMILES: CN1CCN(c2nccc3[nH]c(-c4n[nH]c5ccc(-c6cncc(NC(=O)c7ccccc7)c6)nc45)cc23)CC1 [Compound 235, N-(5-(3-(4-(4-Methylpiperazin-1l-yl)-1H-pyrrolo[3,2-c]pyridin-2-yl)-1H-pyrazolo[4,3-b]pyridin-5-yl)pyridin-3-yl)benzamide]
- EC50 (SW480 colon cancer cells): > 10000 nM
- inhibition at 10 µM (SW480 colon cancer cells): 29.1%
- EC50 [1]: 2250 nM

SMILES: CN1CCN(c2nccc3[nH]c(-c4n[nH]c5ccc(-c6cncc(CN7CCCCC7)c6)nc45)cc23)CC1 [Compound 239, 3-(4-(4-methylpiperazin-1-yl)-1H-pyrrolo[3,2-c]pyridin-2-yl)-5-(5-(piperidin-1-ylmethyl)pyridin-3-yl)-1H-pyrazolo[4,3-b]pyridine]
- EC50 (SW480 colon cancer cells): 1850 nM
- EC50 [1]: 1500 nM

SMILES: CN1CCN(c2nccc3[nH]c(-c4n[nH]c5ccc(-c6cncnc6)nc45)cc23)CC1 [Compound 251, 3-(4-(4-Methylpiperazin-1l-yl)-1H-pyrrolo[3,2-c]pyridin-2-yl)-5-(pyrimidin-5-yl)-1H-pyrazolo[4,3-b]pyridine]
- EC50 (SW480 colon cancer cells): 1130 nM
- EC50 [1]: 1400 nM

SMILES: c1cncc(-c2ccc3[nH]nc(-c4cc5cnccc5[nH]4)c3n2)c1 [Compound 256, 5-(Pyridin-3-yl)-3-(1H-pyrrolo[3,2-c]pyridin-2-yl)-1H-pyrazolo[4,3-b]pyridine]
- EC50 (SW480 colon cancer cells): 161 nM
- EC50 [1]: 243 nM

SMILES: CCNCc1cncc(-c2ccc3[nH]nc(-c4cc5cnccc5[nH]4)c3n2)c1 [Compound 258, N-((5-(3-(1H-Pyrrolo[3,2-c]pyridin-2-yl)-1H-pyrazolo[4,3-b]pyridin-5-yl)pyridin-3-yl)methyl)ethanamine]
- EC50 (SW480 colon cancer cells): 1660 nM
- EC50 [1]: > 10000 nM
- inhibition at 10 µM [1]: 22.6%

SMILES: CN(C)Cc1cncc(-c2ccc3[nH]nc(-c4cc5cnccc5[nH]4)c3n2)c1 [Compound 265, 1-(5-(3-(1H-Pyrrolo[3,2-c]pyridin-2-yl)-1H-pyrazolo[4,3-b]pyridin-5-yl)pyridin-3-yl)-N,N-dimethylmethanamine]
- EC50 (SW480 colon cancer cells): 907 nM
- EC50 [1]: 3120 nM

SMILES: FC1(F)CCN(Cc2cncc(-c3ccc4[nH]nc(-c5cc6cnccc6[nH]5)c4n3)c2)C1 [Compound 278, 5-(5-((3,3-Difluoropyrrolidin-1-yl)methyl)pyridin-3-yl)-3-(1H-pyrrolo[3,2-c]pyridin-2-yl)-1H-pyrazolo[4,3-b]pyridine]
- EC50 (SW480 colon cancer cells): 88 nM
- EC50 [1]: 68 nM

SMILES: c1cc2[nH]c(-c3n[nH]c4ccc(-c5cncnc5)nc34)cc2cn1 [Compound 279, 5-(Pyrimidin-5-yl)-3-(1H-pyrrolo[3,2-c]pyridin-2-yl)-1H-pyrazolo[4,3-b]pyridine]
- EC50 (SW480 colon cancer cells): 1470 nM
- EC50 [1]: 2570 nM

SMILES: c1csc(-c2nccc3[nH]c(-c4n[nH]c5ccc(-c6ccncc6)nc45)cc23)c1 [Compound 354, 5-(Pyridin-4-yl)-3-(4-(thiophen-2-yl)-1H-pyrrolo[3,2-c]pyridin-2-yl)-1H-pyrazolo[4,3-b]pyridine]
- EC50 (SW480 colon cancer cells): 2820 nM
- EC50 [1]: 2720 nM

SMILES: CC(C)CC(=O)Nc1cncc(-c2ccc3[nH]nc(-c4cc5c(-c6cc(F)cc(CNS(C)(=O)=O)c6)nccc5[nH]4)c3n2)c1 [Compound 478, N-(5-(3-(4-(3-Fluoro-5-(methylsulfonamidomethyl)phenyl)-1H-pyrrolo[3,2-c]pyridin-2-yl)-1H-pyrazolo[4,3-b]pyridin-5-yl)pyridin-3-yl)-3-methylbutanamide]
- EC50 (SW480 colon cancer cells): 921 nM
- EC50 [1]: 5700 nM

SMILES: Cc1ccncc1-c1ccc2[nH]nc(-c3cc4c(-c5cc(F)cc(CNS(C)(=O)=O)c5)nccc4[nH]3)c2n1 [Compound 481, N-(3-Fluoro-5-(2-(5-(4-methylpyridin-3-yl)-1H-pyrazolo[4,3-b]pyridin-3-yl)-1H-pyrrolo[3,2-c]pyridin-4-yl)benzyl)methanesulfonamide]
- EC50 (SW480 colon cancer cells): 1040 nM
- EC50 [1]: 311 nM

SMILES: CS(=O)(=O)NCc1cc(F)cc(-c2nccc3[nH]c(-c4n[nH]c5ccc(-c6cncc(NC(=O)Cc7ccccc7)c6)nc45)cc23)c1 [Compound 486, N-(5-(3-(4-(3-Fluoro-5-(methylsulfonamidomethyl)phenyl)-1H-pyrrolo[3,2-c]pyridin-2-yl)-1H-pyrazolo[4,3-b]pyridin-5-yl)pyridin-3-yl)-2-phenylacetamide]
- EC50 (SW480 colon cancer cells): > 10000 nM
- inhibition at 10 µM (SW480 colon cancer cells): 8.8%
- EC50 [1]: > 10000 nM
- inhibition at 10 µM [1]: 37.1%

SMILES: CS(=O)(=O)NCc1cc(F)cc(-c2nccc3[nH]c(-c4n[nH]c5ccc(-c6cncc(NC(=O)C7CCCC7)c6)nc45)cc23)c1 [Compound 498, N-(5-(3-(4-(3-Fluoro-5-(methylsulfonamidomethyl)phenyl)-1H-pyrrolo[3,2-c]pyridin-2-yl)-1H-pyrazolo[4,3-b]pyridin-5-yl)pyridin-3-yl)cyclopentanecarboxamide]
- EC50 (SW480 colon cancer cells): 1980 nM
- EC50 [1]: > 10000 nM
- inhibition at 10 µM [1]: 34.8%

SMILES: CS(=O)(=O)NCc1cc(F)cc(-c2nccc3[nH]c(-c4n[nH]c5ccc(-c6cncc(NC(=O)C7CCCCC7)c6)nc45)cc23)c1 [Compound 499, N-(5-(3-(4-(3-Fluoro-5-(methylsulfonamidomethyl)phenyl)-1H-pyrrolo[3,2-c]pyridin-2-yl)-1H-pyrazolo[4,3-b]pyridin-5-yl)pyridin-3-yl)cyclohexanecarboxamide]
- EC50 (SW480 colon cancer cells): 1420 nM
- EC50 [1]: 958 nM

SMILES: CS(=O)(=O)NCc1cc(F)cc(-c2nccc3[nH]c(-c4n[nH]c5ccc(-c6cncc(CN7CCC(F)(F)C7)c6)nc45)cc23)c1 [Compound 502, N-(3-(2-(5-(5-((3,3-Difluoropyrrolidin-1-yl)methyl)pyridin-3-yl)-1H-pyrazolo[4,3-b]pyridin-3-yl)-1H-pyrrolo[3,2-c]pyridin-4-yl)-5-fluorobenzyl) methanesulfonamide]
- EC50 (SW480 colon cancer cells): 810 nM
- EC50 [1]: 218 nM

SMILES: CS(=O)(=O)NCc1cc(F)cc(-c2nccc3[nH]c(-c4n[nH]c5ccc(-c6cncnc6)nc45)cc23)c1 [Compound 503, N-(3-Fluoro-5-(2-(5-(pyrimidin-5-yl)-1H-pyrazolo[4,3-b]pyridin-3-yl)-1H-pyrrolo [3,2-c]pyridin-4-yl)benzyl)methanesulfonamide]
- EC50 (SW480 colon cancer cells): > 10000 nM
- inhibition at 10 µM (SW480 colon cancer cells): 15.3%
- EC50 [1]: > 10000 nM
- inhibition at 10 µM [1]: 0%

SMILES: CS(=O)(=O)NCc1cc(F)cc(-c2nccc3[nH]c(-c4n[nH]c5ccc(-c6ccccn6)nc45)cc23)c1 [Compound 504, N-(3-Fluoro-5-(2-(5-(pyridin-2-yl)-1H-pyrazolo[4,3-b]pyridin-3-yl)-1H-pyrrolo[3,2-c]pyridin-4-yl)benzyl)methanesulfonamide]
- EC50 (SW480 colon cancer cells): > 10000 nM
- inhibition at 10 µM (SW480 colon cancer cells): 44.7%
- EC50 [1]: 1940 nM

SMILES: Fc1cccc(-c2nccc3[nH]c(-c4n[nH]c5ccc(-c6cncc(OCc7ccccc7)c6)nc45)cc23)c1 [Compound 518, 5-(5-(Benzyloxy)pyridin-3-yl)-3-(4-(3-fluorophenyl)-1H-pyrrolo[3,2-c]pyridin-2-yl)-1H-pyrazolo[4,3-b]pyridine]
- EC50 (SW480 colon cancer cells): 1360 nM
- EC50 [1]: 1040 nM

SMILES: Fc1ccc(-c2nccc3[nH]c(-c4n[nH]c5ccc(-c6cncc(OC7CCNCC7)c6)nc45)cc23)cc1 [Compound 528, 3-(4-(4-Fluorophenyl)-1H-pyrrolo[3,2-c]pyridin-2-yl)-5-(5-(piperidin-4-yloxy)pyridin-3-yl)-1H-pyrazolo[4,3-b]pyridine]
- EC50 (SW480 colon cancer cells): 5220 nM
- EC50 [1]: 1440 nM

SMILES: Fc1ccccc1-c1nccc2[nH]c(-c3n[nH]c4ccc(-c5cn[nH]c5)nc34)cc12 [Compound 539, 3-(4-(2-Fluorophenyl)-1H-pyrrolo[3,2-c]pyridin-2-yl)-5-(1H-pyrazol-4-yl)-1H-pyrazolo[4,3-b]pyridine]
- EC50 (SW480 colon cancer cells): 1270 nM
- EC50 [1]: 33 nM

SMILES: Cc1ncc(-c2ccc3[nH]nc(-c4cc5c(-c6ccncc6)nccc5[nH]4)c3n2)n1C [Compound 573, 5-(1,2-Dimethyl-1H-imidazol-5-yl)-3-(4-(pyridin-4-yl)-1H-pyrrolo[3,2-c]pyridin-2-yl)-1H-pyrazolo[4,3-b]pyridine]
- EC50 (SW480 colon cancer cells): > 10000 nM
- inhibition at 10 µM (SW480 colon cancer cells): 25.6%
- EC50 [1]: 73 nM

SMILES: c1cc2[nH]c(-c3n[nH]c4ccc(-c5cncc(OC6CCCCC6)c5)nc34)cc2c(N2CCCCC2)n1 [Compound 607, 5-(5-(Cyclohexyloxy)pyridin-3-yl)-3-(4-(piperidin-1-yl)-1H-pyrrolo[3,2-c]pyridin-2-yl)-1H-pyrazolo[4,3-b]pyridine]
- EC50 (SW480 colon cancer cells): 300 nM
- EC50 [1]: > 10000 nM
- inhibition at 10 µM [1]: 25.4%

SMILES: O=C(CC1CCNCC1)Nc1cncc(-c2ccc3[nH]nc(-c4cc5c(N6CCCCC6)nccc5[nH]4)c3n2)c1 [Compound 609, N-(5-(3-(4-(Piperidin-1-yl)-1H-pyrrolo[3,2-c]pyridin-2-yl)-1H-pyrazolo[4,3-b]pyridin-5-yl)pyridin-3-yl)-2-(piperidin-4-yl)acetamide]
- EC50 (SW480 colon cancer cells): > 10000 nM
- inhibition at 10 µM (SW480 colon cancer cells): 9.7%
- EC50 [1]: 1080 nM

SMILES: CN1CCN(c2nccc3[nH]c(-c4n[nH]c5ccc(-c6cncc(NC(=O)CC7CCNCC7)c6)nc45)cc23)CC1 [Compound 641, N-(5-(3-(4-(4-Methylpiperazin-1l-yl)-1H-pyrrolo[3,2-c]pyridin-2-yl)-1H-pyrazolo[4,3-b]pyridin-5-yl)pyridin-3-yl)-2-(piperidin-4-yl)acetamide]
- EC50 (SW480 colon cancer cells): > 10000 nM
- inhibition at 10 µM (SW480 colon cancer cells): 16.3%
- EC50 [1]: 5000 nM
